Calls of active or inactive are those of the source. The calls are words filed in the database; no cut-off is given here.
Tests used:
[1] = biological target: T1, Amine oxidase [flavin-containing] B (Homo sapiens, UniProt P27338); test: Inhibition of human microsomal MAO-B expressed in baculovirus infected BTI-TN-5B1-4 cells assessed as reduction in 4-hydroxyquinoline formation at 10 uM using kynuramine as substrate preincubated with substrate for 10 mins followed by enzyme addition by spectrophotometric analysis; conditions: BTI-TN-5B1-4, human
T1 sequence (P27338 whole entry): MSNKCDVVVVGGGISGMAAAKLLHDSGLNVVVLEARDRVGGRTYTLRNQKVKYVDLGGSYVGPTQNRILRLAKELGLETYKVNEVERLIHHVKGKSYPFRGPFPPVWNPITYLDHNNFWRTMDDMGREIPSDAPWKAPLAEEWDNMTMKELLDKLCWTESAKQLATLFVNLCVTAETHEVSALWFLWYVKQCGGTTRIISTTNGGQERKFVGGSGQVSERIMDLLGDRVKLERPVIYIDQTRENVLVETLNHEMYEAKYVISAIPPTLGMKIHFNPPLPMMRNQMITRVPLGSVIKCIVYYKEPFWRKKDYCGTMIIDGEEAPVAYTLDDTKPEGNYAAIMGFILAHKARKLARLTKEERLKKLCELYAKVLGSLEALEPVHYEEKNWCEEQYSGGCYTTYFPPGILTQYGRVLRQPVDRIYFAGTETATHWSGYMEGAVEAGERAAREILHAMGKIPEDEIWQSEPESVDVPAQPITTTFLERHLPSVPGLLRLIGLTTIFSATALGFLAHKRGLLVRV

[2] = biological target: T2, Amine oxidase [flavin-containing] A (Homo sapiens, UniProt P21397); conditions: BTI-TN-5B1-4, human, read-out: INH
T2 sequence (P21397 whole entry): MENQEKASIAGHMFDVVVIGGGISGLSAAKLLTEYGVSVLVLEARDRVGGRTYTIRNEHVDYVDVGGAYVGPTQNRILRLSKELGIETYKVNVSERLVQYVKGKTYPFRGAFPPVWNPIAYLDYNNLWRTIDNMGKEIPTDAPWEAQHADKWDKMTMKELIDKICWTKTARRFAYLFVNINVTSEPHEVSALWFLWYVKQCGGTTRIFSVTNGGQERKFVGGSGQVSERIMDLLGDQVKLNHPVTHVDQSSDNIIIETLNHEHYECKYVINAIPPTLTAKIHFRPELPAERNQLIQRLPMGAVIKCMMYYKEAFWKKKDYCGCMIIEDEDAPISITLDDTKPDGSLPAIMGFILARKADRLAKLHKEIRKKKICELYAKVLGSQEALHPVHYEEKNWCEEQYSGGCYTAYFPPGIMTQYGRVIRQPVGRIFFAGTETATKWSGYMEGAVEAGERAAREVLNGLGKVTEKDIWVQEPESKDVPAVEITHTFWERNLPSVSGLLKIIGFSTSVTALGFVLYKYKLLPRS
Description: Inhibition of human microsomal MAO-A expressed in baculovirus infected BTI-TN-5B1-4 cells assessed as reduction in 4-hydroxyquinoline formation at 10 uM using kynuramine as substrate preincubated with substrate for 10 mins followed by enzyme inhibition by spectrophotometric analysis

[3] = biological target: T1, Amine oxidase [flavin-containing] B; test: biochemical; format: cell-based, BTI-TN-5B1-4
Description: Inhibition of human microsomal MAO-B expressed in baculovirus infected BTI-TN-5B1-4 cells assessed as reduction in 4-hydroxyquinoline formation using kynuramine as substrate preincubated with substrate for 10 mins followed by enzyme addition by spectrophotometric analysis

Homo sapiens = species: Homo sapiens; test: Selectivity index, ratio of IC50 for human microsomal MAO-A expressed in baculovirus infected […] cells to IC50 for human microsomal MAO-B expressed in baculovirus infected […] cells using kynuramine as substrate
[4] = (§1) Cytotoxicity against human SH-SY5Y cells assessed as cellular metabolic activity by measuring resazurin reduction at 10 to 50 uM incubated for 24 hrs followed by incubation with resazurin for 2 hrs by fluorescence based assay (reference value: >85%); format: ADME, cell-based; conditions: SH-SY5Y cells, read-out: Activity
[5] = Chromatographic hydrophobicity index, log D of compound at 250 uM at pH 7.4 by HPLC analysis; format: physicochemical; conditions: buffer
[6] = biological target: T3, ATP-dependent translocase ABCB1 (Homo sapiens, UniProt P08183); test: (§2) Induction of P-gp in human Caco2 cells assessed as decrease in Rho123 intracellular accumulation by measuring increase in ratio between fluorescence intensity of Zos-inhibited Rho123 accumulation and fluorescence intensity of non-inhibited Rho123 accumulation at 10 uM using Rho123 as substrate preincubated for 30 mins in presence of 5 uM P-gp inhibitor, Zos followed by incubation with Rhodamine 123 for 90 mins by fluorescence spectroscopy analysis; format: cell-based; conditions: 1.5 h
[7] = biological target: T1, Amine oxidase [flavin-containing] B; test: Competitive inhibition of human microsomal MAO-B expressed in baculovirus infected BTI-TN-5B1-4 cells assessed as increase in substrate Km using kynuramine as substrate preincubated with substrate at varying concentrations for 10 mins followed by enzyme addition by Lineweaver-Burk plot analysis
[8] = Chromatographic hydrophobicity index of compound at 250 uM at pH 7.4 by HPLC analysis; format: ADME; conditions: pH 7.4, 250 µM
[9] = biological target: T2, Amine oxidase [flavin-containing] A; test: biochemical
Description: Inhibition of human microsomal MAO-A expressed in baculovirus infected BTI-TN-5B1-4 cells assessed as reduction in 4-hydroxyquinoline formation using kynuramine as substrate preincubated with substrate for 10 mins followed by enzyme addition by spectrophotometric analysis

[10] = biological target: T1, Amine oxidase [flavin-containing] B; test: Competitive inhibition of human microsomal MAO-B expressed in baculovirus infected BTI-TN-5B1-4 cells assessed as inhibition constant using kynuramine as substrate preincubated with substrate at varying concentrations for 10 mins followed by enzyme addition by Lineweaver-Burk plot analysis
[11] = biological target: T3, ATP-dependent translocase ABCB1; test: as §2, with “Inhibition” for “Induction”, “efflux” for “intracellular accumulation”, “decrease” for “increase”; format: cell-based; conditions: 1.5 h
[12] = biological target: T1, Amine oxidase [flavin-containing] B; test: Competitive inhibition of human microsomal MAO-B expressed in baculovirus infected BTI-TN-5B1-4 cells assessed as constant Vmax using kynuramine as substrate preincubated with substrate at varying concentrations for 10 mins followed by enzyme addition by Lineweaver-Burk plot analysis
[13] = Cytotoxicity against human Caco2 cells assessed as lysosomal activity by measuring neutral red uptake at 10 to 50 uM incubated for 24 hrs followed by incubation with neutral red solution for 1 hr by microplate reader analysis (reference value: >85%); format: cell-based; conditions: Caco-2 cells, read-out: Activity
[14] = Cytotoxicity against human Caco2 cells assessed as cellular metabolic activity by measuring resazurin reduction at 10 to 50 uM incubated for 24 hrs followed by incubation with resazurin for 1 hr by fluorescence based assay (reference value: >85%); format: ADME, cell-based; conditions: Caco-2 cells, read-out: Activity
[15] = (§3) Cytotoxicity against human SH-SY5Y cells assessed as lysosomal activity by measuring neutral red uptake at 10 to 50 uM incubated for 24 hrs followed by incubation with neutral red solution for 2 hrs by microplate reader analysis (reference value: >85%); format: cell-based; conditions: SH-SY5Y cells, read-out: Activity
[16] = Retention time of compound at pH 7.4 by LC-UV analysis; format: physicochemical; conditions: buffer
SH-SY5Y [17] = test: as §1; format: ADME, cell-based; conditions: sh-sy5y, 24 h, 50 µM
SH-SY5Y [18] = test: as §3; format: cell-based; conditions: sh-sy5y, 24 h, 50 µM
[19] = biological target: T1, Amine oxidase [flavin-containing] B; test: Reversible inhibition of human microsomal MAO-B expressed in baculovirus infected BTI-TN-5B1-4 cells assessed as 4-hydroxyquinoline formation using kynuramine as substrate incubated up to 140 mins by spectrophotometric analysis; conditions: bti-tn-5b1-4, 140 min
[20] = Stability of compound in DMSO-d6 and D2O (7:3) measured after 30 mins to 1 hr in presence of glutathione by thiol trapping assay based 1H-NMR analysis; format: physicochemical
Caco-2 = test: Effect on P-gp protein expression in human Caco-2 cells at 10 uM incubated for 30 mins; format: functional, cell-based
SH-SY5Y [21] = test: Induction of intracellular oxidative stress in human SH-SY5Y cells assessed as increase in reactive species level at 10 to 50 uM pretreated with DCFH-DA for 1.5 hrs followed by incubation with compound for 24 hrs by DCFH-DA dye based fluorescence assay relative to control; format: cell-based

T3 sequence (P08183 whole entry): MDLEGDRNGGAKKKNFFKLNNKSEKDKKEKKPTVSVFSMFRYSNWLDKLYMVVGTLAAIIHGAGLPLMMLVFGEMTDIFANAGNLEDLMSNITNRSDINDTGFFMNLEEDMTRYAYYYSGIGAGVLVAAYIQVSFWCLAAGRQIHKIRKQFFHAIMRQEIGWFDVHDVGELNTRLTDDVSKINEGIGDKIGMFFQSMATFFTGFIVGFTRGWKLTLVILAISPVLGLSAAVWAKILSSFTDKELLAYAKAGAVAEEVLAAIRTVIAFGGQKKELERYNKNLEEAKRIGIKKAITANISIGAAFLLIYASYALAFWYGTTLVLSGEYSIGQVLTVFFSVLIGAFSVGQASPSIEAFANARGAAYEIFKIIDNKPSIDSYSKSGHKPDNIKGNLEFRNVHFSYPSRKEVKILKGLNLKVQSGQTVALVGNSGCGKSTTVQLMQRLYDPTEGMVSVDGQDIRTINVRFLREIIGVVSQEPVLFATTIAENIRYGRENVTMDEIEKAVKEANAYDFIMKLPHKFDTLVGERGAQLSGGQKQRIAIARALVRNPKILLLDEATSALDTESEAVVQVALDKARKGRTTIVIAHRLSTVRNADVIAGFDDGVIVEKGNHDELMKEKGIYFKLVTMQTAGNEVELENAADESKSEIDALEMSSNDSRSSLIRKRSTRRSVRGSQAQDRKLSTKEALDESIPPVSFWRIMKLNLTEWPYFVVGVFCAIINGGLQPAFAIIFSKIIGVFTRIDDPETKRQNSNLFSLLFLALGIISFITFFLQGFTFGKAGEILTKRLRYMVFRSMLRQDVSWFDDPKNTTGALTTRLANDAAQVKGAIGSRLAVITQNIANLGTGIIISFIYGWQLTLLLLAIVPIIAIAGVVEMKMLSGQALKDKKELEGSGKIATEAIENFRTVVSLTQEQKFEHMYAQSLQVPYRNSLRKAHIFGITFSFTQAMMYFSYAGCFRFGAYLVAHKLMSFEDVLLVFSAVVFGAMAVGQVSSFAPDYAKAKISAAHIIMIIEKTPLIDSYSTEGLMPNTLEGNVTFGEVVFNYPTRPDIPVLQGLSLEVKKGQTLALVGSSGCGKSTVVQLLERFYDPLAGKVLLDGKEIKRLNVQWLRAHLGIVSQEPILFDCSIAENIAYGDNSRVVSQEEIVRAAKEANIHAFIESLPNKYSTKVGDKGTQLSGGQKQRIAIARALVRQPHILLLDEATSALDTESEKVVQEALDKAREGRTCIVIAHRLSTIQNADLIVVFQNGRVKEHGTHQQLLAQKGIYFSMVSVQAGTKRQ

## O=C(O)/C=C/C=C/c1ccc2c(c1)OCO2 [PIPERIC ACID]
[1]
  inhibition at 10 µM: < 50%
[2]
  inhibition at 10 µM: < 50%

## O=C(/C=C/C=C/c1ccc2c(c1)OCO2)OCCc1ccccc1
[2]
  inhibition at 10 µM: < 50%
[3]
  IC50: 448 nM
Homo sapiens
  Ratio IC50: > 22

## O=C(/C=C/C=C/c1ccc2c(c1)OCO2)OCc1ccccc1
[4]
  viability at 24 h, up to 50 µM: > 85%
[5]
  chromatographic logD at 250 µM: 3.9
[6]
  Activity: Not Active
[7]
  inhibition (INH): Active
[8]
  CHI: 102.14
[3]
  IC50: 167 nM
[9]
  IC50: 4240 nM
[10]
  Ki: 75 nM
[11]
  inhibition (INH): Not Active
[12]
  inhibition (INH): Active
[13]
  viability at 24 h: > 85%
[14]
  viability at 24 h, up to 50 µM: > 85%
[15]
  viability at 24 h: > 85%
[16]
  Retention_time: 12.46 min
Homo sapiens
  Ratio IC50: 25

## N#C/C(=C\C=C\c1ccc2c(c1)OCO2)C(=O)NCc1ccccc1
[2]
  inhibition at 10 µM: < 50%
[3]
  IC50: 471 nM
Homo sapiens
  Ratio IC50: > 21

## N#C/C(=C\C=C\c1ccc2c(c1)OCO2)C(=O)O
[1]
  inhibition at 10 µM: < 50%
[2]
  inhibition at 10 µM: < 50%

## O=C(/C=C/C=C/c1ccc2c(c1)OCO2)N1CCCCC1 [PIPERINE]
SH-SY5Y [17]
  Activity: Non-Toxic
[5]
  chromatographic logD at 250 µM: 2.39
[6]
  Activity: Not Active
[8]
  CHI: 73.45
[2]
  inhibition at 10 µM: < 50%
[3]
  IC50: 1050 nM
[11]
  inhibition (INH): Not Active
SH-SY5Y [18]
  Activity: Non-Toxic
[16]
  Retention_time: 10.61 min
Homo sapiens
  Ratio IC50: 10

## N#C/C(=C\C=C\c1ccc2c(c1)OCO2)C(=O)OCc1ccccc1
[19]
  inhibition (INH): Active
[4]
  viability at 24 h, up to 50 µM: > 85%
[5]
  chromatographic logD at 250 µM: 3.61
[7]
  inhibition (INH): Active
[8]
  CHI: 96.73
[2]
  inhibition at 10 µM: < 50%
[3]
  IC50: 47.4 nM
[10]
  Ki: 44.1 nM
[11]
  inhibition (INH): Active
[12]
  inhibition (INH): Active
[13]
  viability at 24 h: > 85%
[14]
  viability at 24 h, up to 50 µM: > 85%
[20]
  Stability: Stable
[15]
  viability at 24 h: > 85%
[16]
  Retention_time: 12.11 min
Homo sapiens
  Ratio IC50: > 211

## N#C/C(=C\C=C\c1ccc2c(c1)OCO2)C(=O)NCCc1ccccc1
[1]
  inhibition at 10 µM: < 50%
[2]
  inhibition at 10 µM: < 50%

## C[C@H](NCc1ccc(OCc2cccc(F)c2)cc1)C(N)=O [SAFINAMIDE]
[19]
  inhibition (INH): Active

## N#C/C(=C\C=C\c1ccc2c(c1)OCO2)C(=O)N1CCCCC1
[4]
  viability at 24 h, up to 50 µM: > 85%
[6]
  Activity: Not Active
[7]
  inhibition (INH): Active
[2]
  inhibition at 10 µM: < 50%
[3]
  IC50: 143 nM
[10]
  Ki: 20.6 nM
[12]
  inhibition (INH): Active
Caco-2
  Activity: inactive
[13]
  viability at 24 h: > 85%
[14]
  viability at 24 h, up to 50 µM: > 85%
[15]
  viability at 24 h: > 85%
SH-SY5Y [21]
  Activity: 111.1%
Homo sapiens
  Ratio IC50: > 70

## COc1cc2c(c(OC)c1OC)-c1ccc(OC)c(=O)cc1[C@@H](NC(C)=O)CC2 [COLCHICINE]
[8]
  CHI: 44.32
[16]
  Retention_time: 8.35 min

## O=C(/C=C/C=C/c1ccc2c(c1)OCO2)NCCc1ccccc1
[1]
  inhibition at 10 µM: < 50%
[2]
  inhibition at 10 µM: < 50%

## CCC(=O)c1ccccc1 [PROPIOPHENONE]
[8]
  CHI: 78.41
[16]
  Retention_time: 10.63 min

## N#C/C(=C\C=C\c1ccc2c(c1)OCO2)C(=O)OCCc1ccccc1
[4]
  viability at 24 h, up to 50 µM: > 85%
[5]
  chromatographic logD at 250 µM: 3.82
[8]
  CHI: 100.75
[2]
  inhibition at 10 µM: < 50%
[3]
  IC50: 99.2 nM
[11]
  inhibition (INH): Active
[13]
  viability at 24 h: > 85%
[14]
  viability at 24 h, up to 50 µM: > 85%
[15]
  viability at 24 h: > 85%
[16]
  Retention_time: 12.37 min
Homo sapiens
  Ratio IC50: > 101

Reference: ChEMBL document CHEMBL4312023, “Design of novel monoamine oxidase-B inhibitors based on piperine scaffold: Structure-activity-toxicity, drug-likeness and efflux transport studies” (Eur J Med Chem, 2020)
